Test results reported in patent US7964629B2, “Inhibitors of isoprenylcysteine carboxyl methyltransferase” (Duke Universtiy, priority 2005, dated 2011).

Tests used:
Assay type in all cases: cell-based
[1] = system: GFP-tagged K-Ras in MDCK cells; assay: Localization of GFP-K-Ras in MDCK cells; conditions: 10, 20, 30 μM; 72 h
Experimental: (§1) FIGS. 3A and 3B. Impact of cysmethynil treatment on Ras localization and signaling. FIG. 3A. Mislocalization of GFP Ras in cysmethynil treated cells. […] Live cells were imaged on a spinning disk confocal microscope. FIG. 3B. Impact of cysmethynil treatment on EGF-stimulated protein phosphorylation. […] Where indicated, cells were treated with EGF for the final 10 min prior to harvesting. Cell lysates containing equal amounts of protein were resolved on a 13% SDS-polyacrylamide gel and probed with antiphospho-Akt, antiphospho-p42/44 MAPK or anti-β-tubulin antibody as indicated. MDCK cells stably expressing GFP-H-Ras, GFP-K-Ras or GFP-N-Ras were grown on 35 mm coverslip dishes (MatTek Corporation, Ashland, Mass.) treated with poly-D-lysine. MDCK cells expressing […] were prepared by transient transfection of the Yes-GFP construct (McCabe and Berthiaume, Mol Cell Biol 10:3771-3786 (1999)) using Superfect reagent (Quiagen, Valencia, Calif.) following the manufacturer's instructions. […] Cells were imaged 72 h after drug treatment (24 h for transiently transfected cells) on an Olympus IX70 inverted microscope (Melville, N.Y.) with an UltraView spinning-disk confocal (PerkinElmer LAS, Wellesley, Mass.) and a Krypton/Argon laser, 488 nm line, attached to a cooled-CCD camera (Hamamatsu, Bridgewater, N.J.). […]

Yes-GFP in MDCK cells = assay: Localization of Yes-GFP in MDCK cells (control); conditions: 10, 20, 30 μM
Experimental: as §1

[2] = system: p42/44 MAPK phosphorylation in DKOB8 colon cancer cells; assay: Phosphoprotein analysis: EGF-stimulated p42/44 MAPK; conditions: 1 μM, three days, 1% serum, EGF 10 min
Experimental: FIGS. 3A and 3B. Impact of cysmethynil treatment on Ras localization and signaling. FIG. 3A. Mislocalization of GFP Ras in cysmethynil treated cells. […] Live cells were imaged on a spinning disk confocal microscope. FIG. 3B. Impact of cysmethynil treatment on EGF-stimulated protein phosphorylation. […] Where indicated, cells were treated with EGF for the final 10 min prior to harvesting. Cell lysates containing equal amounts of protein were resolved on a 13% SDS-polyacrylamide gel and probed with antiphospho-Akt, antiphospho-p42/44 MAPK or anti-β-tubulin antibody as indicated. […] Half of the wells were then treated with EGF (10 ng/ml) and half with vehicle for 10 min. Cells were rinsed with PBS and harvested in SDS-PAGE loading buffer. Total cell lysates (30 μg protein) were resolved on 4-20% Tris-glycine polyacrylamide gels (Invitrogen). Proteins were transferred to nitrocellulose and probed with a mix of anti-phospho-Akt and anti-phospho-p42/44 MAPK antibodies, or with anti-tubulin or anti-phospho NFκB antibody (Cell Signaling Technology) as indicated. Visualization was performed with alkaline phosphatase (Promega, Madison, Wis.) as per the manufacturer's instructions.

[3] = system: Rac1 in MDA-MB-231 breast cancer cells; assay: Immunoblot of steady-state Rac level; conditions: 20 μM, 6 day treatment
Experimental: The impact of Icmt inhibition on function of the geranylgeranylated GTPases Rho and Rac in cells has been examined. This study was carried out in MD-MBA-231 breast cancer cells. Tumorigenesis and metastatic behavior of these cells is dependent on high levels of Rho GTPases in particular. […] Cells were harvested and lysates containing equal amounts of protein were resolved by SDS-PAGE and subjected to immunoblot analysis with specific antibodies to RhoA (FIG. 7A), or Rac1 (FIG. 7B). As a control, immunoblot analysis for α-tubulin was carried out on all samples.

## CCCCCCCCn1cc(CC(N)=O)c2cc(-c3cccc(C)c3)ccc21 [cysmethynil, 2-[5-(3-methylphenyl)-1-octyl-1H-indol-3-yl]acetamide]
[1]
  localization of GFP-K-Ras: dose-dependent mislocalization
Yes-GFP in MDCK cells
  plasma membrane localization of Yes-GFP: did not affect
[2]
  EGF-induced increase in MAPK: almost completely blocked
[3]
  Rac levels reduced: > 80%
